Consider one compound from paper PMC7592376, “Design and synthesis of multi-target directed 1,2,3-triazole-dimethylaminoacryloyl-chromenone derivatives with potential use in Alzheimer's disease” (BMC Chemistry, 2020).

For one data set, the target named is T1, AChE (Electrophorus electricus, UniProt O42275).
T1 construct: purchased Aldrich
Description: biochemical. To be noted: mean ± SD, three independent experiments; read-out: AChEI IC50. Here is the method:
(§1) All enzymes and reagents required for the assay were obtained from Aldrich. […] Each well contained 50 µL potassium phosphate buffer (KH2PO4/ K2HPO4, 0.1 M, pH 8), 25 µL sample solution, and 25 µL enzyme (final concentration 0.22 U/mL in buffer). Control experiments were also performed under the same conditions without enzyme. After incubation at room temperature for 15 min, 125 µL DTNB (3 mM in buffer) was added and the characterization of enzymatic reaction was spectrometrically performed at 405 nm followed by the addition of substrate (ATCI 3 mM in water) after 5–10 min. The IC50 values were determined graphically from inhibition curves (log inhibitor concentration vs. percent of inhibition). Also, the same method was used for the BuChE inhibition assay.

Data set [1] has as its target T2, BuChE (Homo sapiens, UniProt P06276).
T2 construct: purchased Aldrich
Description: biochemical. To be noted: mean ± SD, three independent experiments; read-out: BuChEI IC50. As to the method:
as §1

A further data set deals with PC12 cells. Description: Neuroprotection against Aβ25-35-induced damage, MTT assay. In kind it is cell-based. To be noted: up to 50 μM, Aβ25-35 5 μM. As to the method: Compound 10h was selected to study the neuroprotective ability using PC12 cell injury induced by Aβ25–35 by MTT assay.
MTT reduction assay was used to evaluate the neuroprotective effect of compound 10h on neuronal PC12 cell damage induced by Aβ25-35. The cells were grown in monolayer culture on collagen-coated plates at 37 °C in a humidified atmosphere of 5% CO2. Neuronal PC12 cells were plated at a density of 5 × 10^5 cells/well on 96-well plates. The cells were pre-incubated with compound 10h for 3 h before human Aβ 25–35 (final concentration of 5 μM) was added. After 24 h, 90 μL the medium was taken out and 20 μL of MTT (0.5 mg/ml dissolved in RPMI containing phenol red) was added and incubated for an additional 2 h at 37 °C. The absorbance (A570 nm) was measured using a Bio-Rad microplate reader (Model 680, Bio-Rad). The details were reported in our previous work.
On the technique in general: Tetrazolium dyes change colour on reduction, which living cells bring about.

For the next data set, the target named is Aβ1-42 (Homo sapiens, UniProt P05067). Description: biochemical. To be noted: read-out: % Inhibition self-induced Aβ1–42 aggregation. As to the method:
(§2) Inhibition of Aβ1-42 self-aggregation was measured by ThT fluorescence assay. The details of the method were reported in our previous study. To study Aβ42 aggregation inhibition, a reported method, based on the fluorescence emission of ThT was followed. Briefly, the mixtures of Aβ1-40 peptide (Bachem company, Switzerland) and AChE (Sigma, Electrophorus electricus), in the presence or absence of the test inhibitor were incubated for 24 h at room temperature.

In data set [2] the target is AChE-induced Aβ1-40 peptide aggregation (Homo sapiens, UniProt P05067). The data set can be described thus: biochemical. The settings on record: read-out: % Inhibition AChE-induced Aβ aggregation. As to the method:
as §2

Data set [3] can be described thus: Metal chelation studies by UV spectra and molar ratio method. It is filed as physicochemical. As to the method: The stoichiometry of complex 10h-Cu^2+ was also studied (Fig. 4) due to important role of copper ions in AD [38]. The concentration of the test compound 10h was 20 μM and the final concentration of Cu^2+ ranged from 0–44 μM with 4 μM intervals at 303.5 nm.
The plot was obtained by the corresponding absorption against the mole fraction of Cu^2+ to ligand 10h. According to the plot, the ratio 1:1 complexation ration of 10h-Cu^2+ can be seen at the fracture point of the plot with the mole fraction of […].
To study the metal chelating ability, the solutions of compound 10h and Fe^2+, Cu^2+, and Zn^2+ ions (from FeSO4, CuCl2.2H2O, and ZnCl2) were prepared in methanol. The mixture of compound 10h (1 mL) and the test ion solutions (1 mL) with the same final concentration of 20 µM in a 1 cm quartz cuvette was incubated at room temperature for 30 min. Then, the absorption spectra were recorded in the range of 200–600 nm.
The stoichiometry of complex 10h-Cu^2+ was also studied using the molar ratio method. The concentration of compound 10h was 20 μM and the final concentration of Cu^2+ ranged from 0–44 μM with 4 μM intervals at 303.5 nm. The plot was obtained by the corresponding absorption versus mole fraction of Cu^2+ to ligand 10h. All experiments were performed in triplicate.

Data set [4] addresses T2, BuChE. The data set can be described thus: Kinetic study of BuChE inhibition (Lineweaver-Burk and secondary plot). It is filed as biochemical. As to the method:
The kinetic study was performed to investigate the mechanism of inhibition by compound 10h against BuChE.
The Lineweaver–Burk reciprocal plot was provided by plotting 1/V against 1/[S] at variable concentrations of butyrylthiocholine as the substrate (187.5, 750, 1500, 3000 µM).

“And” between values parts separate entries of the source, which are not always exact repeats. Equal entries are not always repeated.

T2 sequence (P06276 29-602): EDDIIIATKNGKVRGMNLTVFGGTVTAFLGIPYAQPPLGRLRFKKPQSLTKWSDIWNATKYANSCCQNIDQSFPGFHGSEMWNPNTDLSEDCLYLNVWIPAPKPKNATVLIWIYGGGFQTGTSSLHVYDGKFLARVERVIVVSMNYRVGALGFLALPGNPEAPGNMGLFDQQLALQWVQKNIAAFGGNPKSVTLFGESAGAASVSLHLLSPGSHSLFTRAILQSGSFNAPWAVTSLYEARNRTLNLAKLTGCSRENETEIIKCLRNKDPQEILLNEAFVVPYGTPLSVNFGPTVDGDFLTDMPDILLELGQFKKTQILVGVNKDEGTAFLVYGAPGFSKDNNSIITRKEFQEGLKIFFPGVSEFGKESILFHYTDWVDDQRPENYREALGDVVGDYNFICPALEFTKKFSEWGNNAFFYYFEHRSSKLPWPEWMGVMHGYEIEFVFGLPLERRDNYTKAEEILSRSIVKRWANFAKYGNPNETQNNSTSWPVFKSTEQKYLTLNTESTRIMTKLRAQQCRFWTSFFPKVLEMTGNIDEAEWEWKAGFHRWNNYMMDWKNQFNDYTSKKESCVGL
Sequence of AChE-induced Aβ1-40 peptide aggregation (P05067 672-711): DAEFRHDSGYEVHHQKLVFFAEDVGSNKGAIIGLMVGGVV
T1 sequence (O42275 24-633): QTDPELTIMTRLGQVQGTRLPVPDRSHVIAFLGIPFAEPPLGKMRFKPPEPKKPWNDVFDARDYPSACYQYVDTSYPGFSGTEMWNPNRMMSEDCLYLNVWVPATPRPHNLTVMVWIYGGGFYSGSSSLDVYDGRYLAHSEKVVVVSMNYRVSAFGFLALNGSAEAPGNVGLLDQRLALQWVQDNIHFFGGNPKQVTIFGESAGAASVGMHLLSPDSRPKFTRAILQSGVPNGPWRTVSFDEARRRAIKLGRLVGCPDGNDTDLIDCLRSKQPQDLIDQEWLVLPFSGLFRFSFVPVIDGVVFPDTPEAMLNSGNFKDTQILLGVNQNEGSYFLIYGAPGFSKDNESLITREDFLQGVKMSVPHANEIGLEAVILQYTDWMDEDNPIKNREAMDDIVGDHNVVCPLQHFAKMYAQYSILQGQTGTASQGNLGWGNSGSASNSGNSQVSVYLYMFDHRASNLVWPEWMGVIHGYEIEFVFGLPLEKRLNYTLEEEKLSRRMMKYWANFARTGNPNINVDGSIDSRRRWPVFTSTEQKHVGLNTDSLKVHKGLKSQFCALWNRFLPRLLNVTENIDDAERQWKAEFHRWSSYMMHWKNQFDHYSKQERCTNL
Sequence of Aβ1-42 (P05067 672-713 limits assumed): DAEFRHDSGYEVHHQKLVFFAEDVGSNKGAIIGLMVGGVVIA

With `CN(C)/C=C/C(=O)c1cc2ccc(OCc3cn(Cc4ccc(F)c(F)c4)nn3)cc2oc1=O` [Compound 10h, (E)-7-((1-(3,4-Difluorobenzyl)-1H-1,2,3-triazol-4-yl)methoxy)-3-(3-(dimethylamino)acryloyl)-2H-chromen-2-one], at AChE, the half-maximal inhibitory concentration (IC50) (usually the point on the concentration scale where inhibition reaches its midpoint) is over 100 µM. Besides, the IC50 at BuChE [1] amounted to 21.7 ± 0.57 µM. The “neuroprotective effect on Aβ-induced PC12 cell injury” value in the data set with PC12 cells is given as “no neuroprotective effect”. For the same compound, at Aβ1-42, the inhibition (as a rule, the drop in the measured response relative to a control, in per cent) at 10 µM came out at 32.6 ± 2%. In data set [2], the inhibition at 100 µM amounted to 29.4 ± 1.5%. Besides, the “metal chelating ability (in words)” value in data set [3] (Fe2+, Cu2+, Zn2+) was “able to chelate biometals”. Besides, in data set [3] (methanol, 20 µM each, 30 min), the “UV absorption peaks after interaction with Cu2+” value is 303.5 nm and 382.4 nm; the “UV absorption peaks after interaction with Fe2+” value was 303.5 nm and 390.9 nm; the “UV absorption peaks after interaction with Zn2+” value is 299.2 nm and 388.7 nm. In data set [3] (methanolic solution 20 µM), the “UV absorption peaks of compound alone” value was 309.9 nm and 386.7 nm. On BuChE [4] (BuChE, inhibitor 0, 10.7, 42.9, 85.8 µM), the “inhibition pattern (Lineweaver-Burk plot)” value was “mixed-type inhibition”. Besides, the Ki – broadly, a measure of affinity in units of concentration, obtained from inhibition or displacement – at BuChE [4] (from secondary plot of slopes vs inhibitor concentration, substrate butyrylthiocholine) stood at 38.3 µM.
